From patent US11685732B2, “MYST family histone acetyltransferase inhibitors” (Epizyme, Inc., priority 2017, dated 2023) come the findings set out here.

One test deals with KAT-5 (Homo sapiens (Human), UniProt Q92993). Briefly: KAT-5 biochemical inhibition assay (SAMDI mass spectrometry). In outline: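 KAT-5 at 9 nM final was preincubated with serially diluted compound (2% DMSO) in 50 mM Tris pH 8.0 with 1 mM DTT. Reaction ran with 1 μM peptide substrate and 0.5 μM acetyl-CoA for 90 min at 25° C, was quenched with 0.5% formic acid, and was read by SAMDI-TOF mass spectrometry.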
Chain of KAT-5 (Q92993 other isoform, or with tags, fused parts or gaps): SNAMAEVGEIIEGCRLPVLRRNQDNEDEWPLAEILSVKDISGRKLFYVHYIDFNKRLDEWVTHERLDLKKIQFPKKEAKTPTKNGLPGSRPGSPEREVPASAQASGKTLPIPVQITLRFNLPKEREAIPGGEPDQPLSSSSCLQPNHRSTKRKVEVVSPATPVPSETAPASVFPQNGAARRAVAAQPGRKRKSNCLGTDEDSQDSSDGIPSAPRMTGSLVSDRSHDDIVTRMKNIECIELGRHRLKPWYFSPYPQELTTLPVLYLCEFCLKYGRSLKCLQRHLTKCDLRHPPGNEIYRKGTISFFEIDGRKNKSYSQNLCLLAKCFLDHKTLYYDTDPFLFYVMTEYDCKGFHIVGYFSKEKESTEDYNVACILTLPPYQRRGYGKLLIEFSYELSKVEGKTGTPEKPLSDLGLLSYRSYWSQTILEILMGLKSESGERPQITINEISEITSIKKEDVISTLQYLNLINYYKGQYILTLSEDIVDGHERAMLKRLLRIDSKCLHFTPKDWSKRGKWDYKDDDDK

A further test addresses KAT-6A (Homo sapiens (Human), UniProt Q92794). Briefly: KAT-6A biochemical inhibition assay (SAMDI mass spectrometry). In a few lines:
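Enzyme (12.5 nM final) pre-incubated with serially diluted compounds (2% DMSO final) in 50 mM Tris pH 8.0 with Tween20, gelatin and 1 mM DTT. Reaction started with 1 μM peptide substrate and 1 μM acetyl-CoA, run 90 min at 25 °C, quenched with 0.5% formic acid, read by SAMDI-TOF mass spectrometry; IC50 derived.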

Another test concerns the target KAT-7 (Homo sapiens (Human), UniProt O95251). Briefly: KAT-7 biochemical inhibition assay (SAMDI mass spectrometry). How it is done:
(§1) KAT-7. Enzyme assay buffer was 50 mM Tris pH 8.0, 0.002% Tween20, 0.005% bovine skin gelatin, and 1 mM dithiothreitol (DTT). For determination of IC50 values, compounds were serially diluted with 2% (v/v) DMSO in the final reaction, pre-incubating each dilution of each compound with 40 μL of assay buffer containing KAT-7 enzyme (6 nM final concentration). 10 μL of assay buffer containing 1 μM peptide substrate and 2 μM acetyl coenzyme A (final concentrations) was added. Reactions (50 μL total) were then carried out at 25° C. for 120 minutes. Reactions were terminated by the addition of 0.5% formic acid (final concentration), and a sample of each reaction was analyzed by SAMDI Tech, Inc. (Chicago, Ill.) using self-assembled monolayer desorption/ionization time-of-flight mass spectrometry (Mrksich, M. (2008) Mass spectrometry of self-assembled monolayers: a new tool for molecular surface science. ACS Nano 2, 7-18).

Another test deals with KAT-8 (Homo sapiens (Human), UniProt Q9H7Z6). Description: KAT-8 biochemical inhibition assay (SAMDI mass spectrometry). How it is done: as §1, with “KAT-8. Enzyme” for “KAT-7. Enzyme”, “containing KAT-8” for “containing KAT-7”, “enzyme (12.5” for “enzyme (6”, “and 5” for “and 2”, “for 90” for “for 120”
Chain of KAT-8 (Q9H7Z6 other isoform, or with tags, fused parts or gaps): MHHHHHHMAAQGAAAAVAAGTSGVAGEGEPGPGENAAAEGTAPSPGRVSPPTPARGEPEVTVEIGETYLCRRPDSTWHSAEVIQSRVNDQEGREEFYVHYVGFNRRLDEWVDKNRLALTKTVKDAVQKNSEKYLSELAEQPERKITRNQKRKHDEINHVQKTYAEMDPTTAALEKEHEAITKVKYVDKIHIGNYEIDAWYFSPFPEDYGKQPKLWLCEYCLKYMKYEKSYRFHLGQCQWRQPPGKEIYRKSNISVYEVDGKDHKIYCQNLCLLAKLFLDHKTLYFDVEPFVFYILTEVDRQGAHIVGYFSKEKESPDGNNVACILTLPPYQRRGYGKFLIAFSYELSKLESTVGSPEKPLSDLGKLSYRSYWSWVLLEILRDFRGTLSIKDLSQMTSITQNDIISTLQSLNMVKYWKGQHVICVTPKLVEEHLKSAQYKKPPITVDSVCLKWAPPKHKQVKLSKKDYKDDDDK

pIC50: −log10 of the molar value. Where two headings read alike, the source gives them in different places. Some results are limits rather than exact numbers.

Chain of KAT-7 (O95251 other isoform, or with tags, fused parts or gaps): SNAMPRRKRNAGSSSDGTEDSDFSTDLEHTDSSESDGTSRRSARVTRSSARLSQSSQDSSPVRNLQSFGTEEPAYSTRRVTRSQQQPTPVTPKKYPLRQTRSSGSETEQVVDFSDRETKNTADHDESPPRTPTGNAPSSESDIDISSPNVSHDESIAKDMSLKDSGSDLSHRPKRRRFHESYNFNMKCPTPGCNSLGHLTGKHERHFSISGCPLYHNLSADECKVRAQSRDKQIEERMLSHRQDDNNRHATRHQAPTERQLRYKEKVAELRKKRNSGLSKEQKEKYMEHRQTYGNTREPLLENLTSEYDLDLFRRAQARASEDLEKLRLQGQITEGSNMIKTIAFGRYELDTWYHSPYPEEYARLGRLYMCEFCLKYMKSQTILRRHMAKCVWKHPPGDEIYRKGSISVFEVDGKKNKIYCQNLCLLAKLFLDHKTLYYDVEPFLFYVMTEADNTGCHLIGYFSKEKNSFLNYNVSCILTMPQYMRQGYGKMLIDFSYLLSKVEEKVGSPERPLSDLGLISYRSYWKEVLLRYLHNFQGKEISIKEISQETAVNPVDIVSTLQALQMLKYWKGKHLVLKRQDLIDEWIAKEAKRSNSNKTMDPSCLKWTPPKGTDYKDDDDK
Chain of KAT-6A (Q92794 other isoform, or with tags, fused parts or gaps): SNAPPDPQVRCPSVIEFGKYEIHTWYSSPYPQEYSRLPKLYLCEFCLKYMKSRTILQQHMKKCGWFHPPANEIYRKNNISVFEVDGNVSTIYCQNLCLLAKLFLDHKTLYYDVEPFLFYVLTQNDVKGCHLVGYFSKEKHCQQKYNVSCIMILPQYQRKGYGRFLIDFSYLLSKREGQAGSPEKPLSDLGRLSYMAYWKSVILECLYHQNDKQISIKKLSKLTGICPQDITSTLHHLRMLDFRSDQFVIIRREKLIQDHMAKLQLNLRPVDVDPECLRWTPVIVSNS

Usually pIC50 stands for the negative decadic logarithm of the IC50, by convention in mol/L. A lower pIC50 goes with a large IC50. Take `Cc1cc(-c2ccccc2)cc(C(=O)NNS(=O)(=O)CC2CCCN(C(=O)OC(C)(C)C)C2)c1F` (single isomer, unassigned) [B, reference compound]: the pIC50 is at least 5.00 against KAT-5 (Table 6, comparative compounds); at least 5.00 against KAT-6A (Table 6, comparative compounds); at least 5.00 on KAT-7 (Table 6, comparative compounds); 4.00 to 4.30 on KAT-8 (Table 6, comparative compounds).
In the case of `Cc1cc(-c2ccccc2)cc(C(=O)NNS(=O)(=O)CC2CCCN(C(=O)OC(C)(C)C)C2)c1F` (single isomer, unassigned) [C, reference compound], the negative-log IC50 (pIC50) at KAT-5 (Table 6, comparative compounds) is at least 5.00; against KAT-6A (Table 6, comparative compounds), at least 5.00; against KAT-7 (Table 6, comparative compounds), 4.30 to 5.00; on KAT-8 (Table 6, comparative compounds), under 4.00.
As for `O=C(NNS(=O)(=O)CC1CCCNC1)c1cc(-c2ccccc2)cc(Cl)c1F` (stereo not drawn) [A, reference compound], the pIC50 against KAT-5 (Table 6, comparative compounds) was 4.30 to 5.00; on KAT-6A (Table 6, comparative compounds), 4.30 to 5.00; against KAT-7 (Table 6, comparative compounds), 4.00 to 4.30; against KAT-8 (Table 6, comparative compounds), under 4.00.
As for `Cn1cnc(-c2cc(Cl)c(F)c(C(=O)NNS(=O)(=O)CC3CCOCC3)c2)c1` [Compound I-1], the pIC50 against KAT-5 is over 5.00; against KAT-6A, over 5.00; against KAT-7, over 5.00; against KAT-8, under 4.00.
Turning to `Cn1cnc(-c2cc(Cl)c(F)c(C(=O)NNS(=O)(=O)C3CCCCC3)c2)c1` [Compound I-2], the pIC50 at KAT-5 was over 5.00; against KAT-6A it was over 5.00; against KAT-7, over 5.00; on KAT-8, 4.30 to 5.00.
Turning to `Cn1cnc(-c2cc(Cl)c(F)c(C(=O)NNS(=O)(=O)C3CCN(C(=O)OC(C)(C)C)CC3)c2)c1` [Compound I-3], the pIC50 was over 5.00 on KAT-5, over 5.00 against KAT-6A, over 5.00 against KAT-7 and under 4.00 on KAT-8.
Consider `Cn1ccc(-c2cc(Cl)c(F)c(C(=O)NNS(=O)(=O)CC3CCCCC3)c2)n1` [Compound I-4], for which the pIC50 on KAT-5 is over 5.00; on KAT-6A it was over 5.00; against KAT-7, over 5.00; against KAT-8 it was 4.00 to 4.30.
Take `O=C(NNS(=O)(=O)CC1CCCCC1)c1cc(-c2ccccn2)cc(Cl)c1F` [Compound I-5]: the pIC50 was over 5.00 at KAT-5, over 5.00 against KAT-6A, over 5.00 against KAT-7 and under 4.00 against KAT-8.
Turning to `Cn1ccc(-c2cc(Cl)c(F)c(C(=O)NNS(=O)(=O)CC3CCOCC3)c2)n1` [Compound I-6], the pIC50 was 4.30 to 5.00 on KAT-5, over 5.00 at KAT-6A, 4.30 to 5.00 against KAT-7 and under 4.00 at KAT-8.
`Cn1cnc(-c2cc(Cl)c(F)c(C(=O)NNS(=O)(=O)CC3CCCNC3)c2)c1` (stereo not drawn) [Compound I-7]: the pIC50 against KAT-5 is 4.30 to 5.00; at KAT-6A, 4.00 to 4.30; at KAT-7 it was over 5.00; against KAT-8, under 4.00.
The like results for `Cn1cc(-c2cc(Cl)c(F)c(C(=O)NNS(=O)(=O)C3CCOCC3)c2)nc1Cl` [Compound I-8] were, in that order, under 4.00, 4.30 to 5.00, 4.30 to 5.00 and under 4.00.
The like results for `Cn1cnc(-c2cc(Cl)c(F)c(C(=O)NNS(=O)(=O)C3CCOCC3)c2)c1` [Compound I-9] were, in that order, 4.30 to 5.00, 4.30 to 5.00, over 5.00 and under 4.00.
The corresponding values for `CC(=O)N1CCCC(CS(=O)(=O)NNC(=O)c2cc(-c3cn(C)cn3)cc(Cl)c2F)C1` (stereo not drawn) [Compound I-10] are over 5.00, over 5.00, over 5.00 and under 4.00.
With `Cn1c(Cl)nc(-c2cc(Cl)c(F)c(C(=O)NNS(=O)(=O)C3CCOCC3)c2)c1Cl` [Compound I-11], the pIC50 is 4.00 to 4.30 on KAT-5, 4.30 to 5.00 against KAT-6A, 4.00 to 4.30 against KAT-7 and under 4.00 at KAT-8.
In the case of `Cn1cnc(-c2cc(Cl)c(F)c(C(=O)NNS(=O)(=O)C3CCC3)c2)c1` [Compound I-12], the pIC50 on KAT-5 was 4.00 to 4.30; on KAT-6A, 4.00 to 4.30; on KAT-7 it was over 5.00; against KAT-8 it was under 4.00.
For `Cn1cnc(-c2cc(Cl)c(F)c(C(=O)NNS(=O)(=O)CC3CCCN(C(=O)C4CCC4)C3)c2)c1` (stereo not drawn) [Compound I-13], the pIC50 against KAT-5 is over 5.00; on KAT-6A it was over 5.00; against KAT-7, over 5.00; on KAT-8, under 4.00.
For the compound `CC(C)S(=O)(=O)NNC(=O)c1cc(-c2cn(C)cn2)cc(Cl)c1F` [Compound I-14], the pIC50 was 4.00 to 4.30 at KAT-5, under 4.00 against KAT-6A, 4.30 to 5.00 against KAT-7 and under 4.00 on KAT-8.
Consider `Cn1cnc(-c2cc(Cl)c(F)c(C(=O)NNS(=O)(=O)C3CCCC3)c2)c1` [Compound I-15], for which the pIC50 against KAT-5 was 4.30 to 5.00; against KAT-6A, 4.00 to 4.30; against KAT-7, over 5.00; against KAT-8, under 4.00.
The like results for `Cn1cc(-c2cc(Cl)c(F)c(C(=O)NNS(=O)(=O)CC3CCOCC3)c2)cn1` [Compound I-16] were, in that order, 4.30 to 5.00, under 4.00, over 5.00 and under 4.00.
For `Cc1ccnc(-c2cc(Cl)c(F)c(C(=O)NNS(=O)(=O)CC3CCOCC3)c2)c1` [Compound I-17], the pIC50 at KAT-5 is over 5.00; on KAT-6A, over 5.00; against KAT-7, over 5.00; against KAT-8, under 4.00.
Consider `Cn1cnc(-c2cc(Cl)c(F)c(C(=O)NNS(=O)(=O)C3CC3)c2)c1` [Compound I-19], for which the pIC50 at KAT-5 was under 4.00; at KAT-6A it was under 4.00; on KAT-7 it was 4.30 to 5.00; against KAT-8 it was under 4.00.
Take `Cn1cnc(-c2cc(Cl)c(F)c(C(=O)NNS(=O)(=O)CC3CCCC3)c2)c1` [Compound I-20]: the pIC50 on KAT-5 was over 5.00; on KAT-6A, over 5.00; on KAT-7, over 5.00; at KAT-8, 4.00 to 4.30.
Consider `Cn1cnc(-c2cc(Cl)c(F)c(C(=O)NNS(C)(=O)=O)c2)c1` [Compound I-22], for which the pIC50 on KAT-5 was under 4.00; at KAT-6A, 4.30 to 5.00; on KAT-7, over 5.00; against KAT-8, under 4.00.
On to `CCS(=O)(=O)NNC(=O)c1cc(-c2cn(C)cn2)cc(Cl)c1F` [Compound I-25], for which the pIC50 against KAT-5 is 4.30 to 5.00; at KAT-6A, 4.00 to 4.30; at KAT-7, over 5.00; against KAT-8, under 4.00.
For `Cc1c(-c2cc(Cl)c(F)c(C(=O)NNS(=O)(=O)CC3CCCCC3)c2)ncn1C` [Compound I-38], the figures for the pIC50 at KAT-5, against KAT-7 and against KAT-8 were over 5.00, over 5.00 and under 4.00, respectively.
Turning to `CC(C)S(=O)(=O)N1CCCC(CS(=O)(=O)NNC(=O)c2cc(-c3cn(C)cn3)cc(Cl)c2F)C1` (stereo not drawn) [Compound I-98], the pIC50 against KAT-5 was over 5.00; on KAT-7, over 5.00; against KAT-8 it was 4.30 to 5.00.
For the compound `CC(=O)NC1CCCC(CS(=O)(=O)NNC(=O)c2cc(-c3cn(C)cn3)cc(Cl)c2F)C1` (stereo not drawn) [Compound I-99], the pIC50 against KAT-5 is over 5.00; on KAT-7, over 5.00; at KAT-8 it was 4.30 to 5.00.
For the compound `Cn1cnc(-c2cc(Cl)c(F)c(C(=O)NNS(=O)(=O)c3cccc(N)n3)c2)c1` [Compound I-392], the values for the pIC50 at KAT-5, on KAT-6A and against KAT-8 were over 5.00, over 5.00 and under 4.00, respectively.
`Cn1cnc(-c2cc(Cl)c(F)c(C(=O)NNS(=O)(=O)c3cccc(NCc4ccccc4)n3)c2)c1` [Compound I-393]: the pIC50 is over 5.00 against KAT-5, over 5.00 against KAT-6A and under 4.00 against KAT-8.
On to `CN(CCOc1ccc(S(=O)(=O)NNC(=O)c2cc(-c3cn(C)cn3)cc(Cl)c2F)cc1)C(=O)OC(C)(C)C` [Compound I-394], for which the pIC50 against KAT-5 was 4.30 to 5.00; against KAT-6A it was 4.30 to 5.00; against KAT-8, under 4.00.
Consider `CNC1CC(CS(=O)(=O)NNC(=O)c2cc(-c3cn(C)cn3)cc(Cl)c2F)C1` (stereo not drawn) [Compound I-395], for which the results for the pIC50 at KAT-5, on KAT-6A and against KAT-8 were 4.30 to 5.00, 4.30 to 5.00 and under 4.00, respectively.
As to `Cn1cnc(-c2cc(Cl)c(F)c(C(=O)NNS(=O)(=O)CC3CCC(C)(C)CC3)c2)c1` [Compound I-396], the values for the pIC50 at KAT-5, against KAT-6A and against KAT-8 were over 5.00, over 5.00 and 4.30 to 5.00, respectively.
